In ChEMBL document CHEMBL4190333, “Cyclic Biphalin Analogues Incorporating a Xylene Bridge: Synthesis, Characterization, and Biological Profile” (ACS Med Chem Lett, 2017):
Calls of active or inactive are those of the source. The calls are words filed in the database; no cut-off is given here. Starred links: 1 amine or outer side, 2 acyl side, 3 side chain; linkers in the order of their positions; H or OH if unused. Positions of bridges follow the written chain, without caps; N, C: chain ends. Non-standard residues stand in square brackets, D forms with d. Residues, ends and D or L forms follow the SMILES beside them. Chains are numbered I, II in the order given. NHNH = N(N[*:2])[*:1]

Experiments:
Mu-type opioid receptor [1] = molecular target: Mu-type opioid receptor (Rattus norvegicus, UniProt P33535); test: Displacement of [3H]DAMGO from MOR in Wistar rat whole brain membranes after 45 mins by liquid scintillation counting method; assay type: cell membranes, Membrane
Mus musculus [2] = test: Antinociceptive activity in Harlan CD-1 mouse model of thermal-induced nociception assessed as increase in latency to tail withdrawal at 0.01 nmol, icv measured after 45 to 90 mins by tail flick test; assay type: functional, organism-based
[3] = Half life in human plasma at 100 ug/ml by HPLC method; assay type: ADME, cell-free
Mus musculus [4] = species on record: Mus musculus; test: Antinociceptive activity in Harlan CD-1 mouse model of thermal-induced nociception assessed as increase in latency to tail withdrawal at 0.01 nmol, i.t measured after 45 to 120 mins by tail flick test; assay type: functional, organism-based
[5] = molecular target: Delta-type opioid receptor (Rattus norvegicus, UniProt P33533); test: Displacement of [3H]lleDelt2 from DOR in Wistar rat whole brain membranes after 45 mins by liquid scintillation counting method; assay type: cell membranes, Membrane
Mus musculus [6] = test: Analgesic activity in formalin-induced nociception Harlan CD-1 mouse model assessed as reduction in time spent in licking or biting formalin injected hind paw during inflammatory phase at 0.1 nmol, sc pretreated for 15 mins followed by formalin induction measured after 15 to 40 mins; assay type: functional, organism-based
Mus musculus [7] = test: Analgesic activity in formalin-induced nociception Harlan CD-1 mouse model assessed as reduction in time spent in licking or biting formalin injected hind paw during neurogenic phase at 0.1 nmol, sc pretreated for 15 mins followed by formalin induction measured up to 10 mins; assay type: functional, organism-based
[8] = (§1) Agonist activity at heteromeric G-protein in Wistar rat whole brain membranes after 30 mins by [35S]GTPgammaS binding assay; assay type: cell membranes, Membrane
Rattus norvegicus [9] = species on record: Rattus norvegicus; test: as §1; assay type: cell membranes; settings: Membrane
Rattus norvegicus [10] = species on record: Rattus norvegicus; test: Selectivity ratio of Ki for displacement of [3H]lleDelt2 from DOR in Wistar rat whole brain membranes to displacement of [3H]DAMGO from MOR in Wistar rat whole brain membranes; assay type: cell membranes
Mus musculus [11] = test: Antinociceptive activity in Harlan CD-1 mouse model of thermal-induced nociception assessed as increase in latency to tail withdrawal at 0.01 nmol, icv measured after 15 to 120 mins by tail flick test; assay type: functional, organism-based
Mus musculus [12] = species on record: Mus musculus; test: Antinociceptive activity in Harlan CD-1 mouse model of thermal-induced nociception assessed as increase in latency to tail withdrawal at 0.01 nmol, i.t measured after 15 to 120 mins by tail flick test; assay type: functional, organism-based
Mu-type opioid receptor [13] = molecular target: Mu-type opioid receptor (Homo sapiens, UniProt P35372); test: Binding affinity to MOR (unknown origin)
Sequence of Mu-type opioid receptor (Homo sapiens, UniProt P35372) (P35372 whole entry): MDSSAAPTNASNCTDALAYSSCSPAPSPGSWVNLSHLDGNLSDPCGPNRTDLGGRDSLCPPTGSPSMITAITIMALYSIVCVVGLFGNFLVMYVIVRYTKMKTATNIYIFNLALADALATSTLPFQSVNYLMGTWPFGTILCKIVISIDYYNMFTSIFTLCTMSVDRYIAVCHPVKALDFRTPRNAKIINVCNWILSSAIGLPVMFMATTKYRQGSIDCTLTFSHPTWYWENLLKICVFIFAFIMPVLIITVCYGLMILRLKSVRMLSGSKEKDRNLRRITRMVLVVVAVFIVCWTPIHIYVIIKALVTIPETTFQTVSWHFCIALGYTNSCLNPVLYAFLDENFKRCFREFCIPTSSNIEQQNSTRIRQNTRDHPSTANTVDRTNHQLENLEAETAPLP

Sequence of Delta-type opioid receptor (P33533 whole entry): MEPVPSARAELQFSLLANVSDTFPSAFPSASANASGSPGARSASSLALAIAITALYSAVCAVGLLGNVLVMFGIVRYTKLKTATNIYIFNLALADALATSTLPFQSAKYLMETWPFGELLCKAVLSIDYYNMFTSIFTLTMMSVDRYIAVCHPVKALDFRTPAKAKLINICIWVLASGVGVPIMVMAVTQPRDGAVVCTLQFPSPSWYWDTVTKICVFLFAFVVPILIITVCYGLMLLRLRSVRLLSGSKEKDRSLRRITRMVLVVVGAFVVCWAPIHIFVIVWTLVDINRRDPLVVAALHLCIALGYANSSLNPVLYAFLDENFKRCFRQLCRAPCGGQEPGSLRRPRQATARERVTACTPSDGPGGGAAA
Sequence of Mu-type opioid receptor (Rattus norvegicus, UniProt P33535) (P33535 whole entry): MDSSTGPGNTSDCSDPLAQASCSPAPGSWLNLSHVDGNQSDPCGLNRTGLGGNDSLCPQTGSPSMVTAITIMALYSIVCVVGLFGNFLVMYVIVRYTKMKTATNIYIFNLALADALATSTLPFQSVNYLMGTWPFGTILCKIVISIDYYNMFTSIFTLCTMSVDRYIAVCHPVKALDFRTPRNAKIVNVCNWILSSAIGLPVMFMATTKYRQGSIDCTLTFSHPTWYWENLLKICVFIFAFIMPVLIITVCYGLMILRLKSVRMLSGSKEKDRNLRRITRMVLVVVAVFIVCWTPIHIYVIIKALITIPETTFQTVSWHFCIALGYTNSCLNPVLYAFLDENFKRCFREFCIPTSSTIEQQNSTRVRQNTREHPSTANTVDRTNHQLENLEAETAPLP

SMILES | Ki (Mu-type opioid receptor [1]) [nM] | Activity (Mus musculus [2]) | half-life at 100 ug/ml [3] [h] | Activity (Mus musculus [4]) | Ki [5] [nM] | Activity (Mus musculus [6]) | Activity (Mus musculus [7]) | EC50 [8] [nM] | Emax (Rattus norvegicus [9]) [%] | Ratio Ki (Rattus norvegicus [10]) | Activity (Mus musculus [11]) | Activity (Mus musculus [12]) | EC50 (Mu-type opioid receptor [13]) [nM]
N[C@@H](Cc1ccc(O)cc1)C(=O)N[C@@H]1CSCc2ccccc2CSC[C@@H](NC(=O)[C@@H](N)Cc2ccc(O)cc2)C(=O)NCC(=O)N[C@@H](Cc2ccccc2)C(=O)NNC(=O)[C@H](Cc2ccccc2)NC(=O)CNC1=O.O=C(O)C(F)(F)F.O=C(O)C(F)(F)F | 1.33 | Active | 1.45 | Active | 2.26 | Active | Active | 247 | 137 | 1.8 |  |  | 
N[C@@H](Cc1ccc(O)cc1)C(=O)N[C@@H]1CSCc2cccc(c2)CSC[C@@H](NC(=O)[C@@H](N)Cc2ccc(O)cc2)C(=O)NCC(=O)N[C@@H](Cc2ccccc2)C(=O)NNC(=O)[C@H](Cc2ccccc2)NC(=O)CNC1=O | 1.73 |  |  |  | 3.81 | Active | Active | 213 | 160 | 2.2 | Active | Active | 
C[C@@H](NC(=O)[C@@H](N)Cc1ccc(O)cc1)C(=O)NCC(=O)N[C@@H](Cc1ccccc1)C(=O)NNC(=O)[C@H](Cc1ccccc1)NC(=O)CNC(=O)[C@@H](C)NC(=O)[C@@H](N)Cc1ccc(O)cc1 [BIPHALIN] | 0.79 |  | 0.55 |  | 3.5 | Active | Active | 75.4 | 177 |  |  |  | 1 to 4
N[C@@H](Cc1ccc(O)cc1)C(=O)N[C@@H]1CSSC[C@@H](NC(=O)[C@@H](N)Cc2ccc(O)cc2)C(=O)NCC(=O)N[C@@H](Cc2ccccc2)C(=O)NNC(=O)[C@H](Cc2ccccc2)NC(=O)CNC1=O (I: H-Y[dC]GF / II: H-Y[dC]GF; disulfide I:2-II:2; linker I:C-II:C via NHNH) | 6.06 |  |  |  | 5.25 |  |  | 508 | 146 | 0.9 |  |  | 
N[C@@H](Cc1ccc(O)cc1)C(=O)N[C@@H]1CSCc2ccc(cc2)CSC[C@@H](NC(=O)[C@@H](N)Cc2ccc(O)cc2)C(=O)NCC(=O)N[C@@H](Cc2ccccc2)C(=O)NNC(=O)[C@H](Cc2ccccc2)NC(=O)CNC1=O | 1.61 |  |  |  | 2.52 | Active | Active | 87.4 | 150 | 1.5 | Active | Active | 
